Laboratory results from patent publication US20250353863A1, “TRICYCLIC SPIROLACTAM COMPOUNDS WITH ANTIMYCOBACTERIAL ACTIVITY” (priority 2022, published 2025).
Values after ≈ are worked out from the molar mass of the structure shown. Read-outs that look alike come from different tables or passages of the source.

How the values were obtained:
Mtb H37Rv-WT = assay: MIC by resazurin microtiter assay (REMA) against Mtb; assay type: cell-based; conditions: Mycobacterium tuberculosis
[1] = target: purified Ndh (Mtb recombinant MBP tagged Ndh-2 enzyme, MBP-Ndh) (Mycobacterium tuberculosis (strain ATCC 25618 / H37Rv), UniProt P95160); assay: Biochemical evaluation of MBP-Ndh inhibition (NADH oxidation with menadione)
purified Ndh (Mtb recombinant MBP tagged Ndh-2 enzyme, MBP-Ndh), sequence (P95160 whole entry, looked up): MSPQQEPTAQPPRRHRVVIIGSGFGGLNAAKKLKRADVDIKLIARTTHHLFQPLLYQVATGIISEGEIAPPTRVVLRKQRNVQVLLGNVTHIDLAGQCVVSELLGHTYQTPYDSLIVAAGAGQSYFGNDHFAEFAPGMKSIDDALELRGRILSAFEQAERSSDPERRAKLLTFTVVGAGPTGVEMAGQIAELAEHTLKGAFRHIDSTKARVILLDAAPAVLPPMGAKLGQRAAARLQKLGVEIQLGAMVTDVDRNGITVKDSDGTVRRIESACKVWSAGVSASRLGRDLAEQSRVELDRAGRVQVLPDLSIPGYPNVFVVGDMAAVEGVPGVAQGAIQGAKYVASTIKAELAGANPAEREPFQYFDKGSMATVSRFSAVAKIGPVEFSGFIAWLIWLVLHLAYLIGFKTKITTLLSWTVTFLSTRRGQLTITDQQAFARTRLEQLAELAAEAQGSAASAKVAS

[2] = target: NdhA-M. tb (recombinant MBP-NdhA) (Mycobacterium tuberculosis (strain ATCC 25618 / H37Rv), UniProt P95200); assay: Biochemical evaluation of MBP-NdhA inhibition (NADH oxidation with menadione)
NdhA-M. tb (recombinant MBP-NdhA), sequence (P95200 whole entry, looked up): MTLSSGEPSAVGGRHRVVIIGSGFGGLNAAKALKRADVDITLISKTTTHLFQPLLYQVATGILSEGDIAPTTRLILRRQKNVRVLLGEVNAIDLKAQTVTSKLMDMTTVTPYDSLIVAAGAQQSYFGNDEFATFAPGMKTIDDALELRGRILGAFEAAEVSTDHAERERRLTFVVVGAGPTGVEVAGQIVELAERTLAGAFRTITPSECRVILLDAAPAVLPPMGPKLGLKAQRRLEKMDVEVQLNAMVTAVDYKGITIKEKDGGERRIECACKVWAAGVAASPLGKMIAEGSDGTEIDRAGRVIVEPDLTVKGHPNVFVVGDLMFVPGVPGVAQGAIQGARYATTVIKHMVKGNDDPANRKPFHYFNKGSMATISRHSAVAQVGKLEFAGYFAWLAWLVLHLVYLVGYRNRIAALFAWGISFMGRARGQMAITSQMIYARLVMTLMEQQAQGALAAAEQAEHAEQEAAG

M. smegmatis = assay: MIC analysis of non-Mtb mycobacteria; assay type: cell-based; conditions: Mycolicibacterium smegmatis, 48 h; 2 days incubation
[3] = 144 h, REMA, 37° C., 6 days, read-out: MIC (μM) H37Rv-WT
[4] = NADH 500 μM, menadione 100 μM, read-out: IC50 (μM) purified Ndh
[5] = 144 h, read-out: MIC (μM) H37Rv-WT
[6] = REMA, read-out: MIC M. tuberculosis

SMILES | MIC (Mtb H37Rv-WT; [3]) | IC50 [1, 4] | further results
CC(C)[C@H]1CO[C@]23CCN(CCc4ccc(C(F)(F)F)cc4)C[C@H]2CCC(=O)N13 | < 1 µM | 0.1 to 1 µM | 
CC(C)[C@H]1CO[C@]23CCN(Cc4ccccn4)C[C@H]2CCC(=O)N13 |  |  | MIC (Mtb H37Rv-WT; [5]): 1 to 10 µM (≈ 0.329 to 3.29 µg/mL); IC50 [1]: 0.1 to 1 µM
CC(C)[C@H]1CO[C@]23CCN(C(=O)Cc4ccccc4)C[C@H]2CCC(=O)N13 [(3S,7aR,11aR)-3-isopropyl-9-(2-phenylacetyl)-2,3,6,7,7a,8,10,11-octahydrooxazolo[2,3-j][1,6]naphthyridin-5-one] | > 10 µM | > 1 µM | 
CC(C)[C@H]1CO[C@]23CCN(CCc4ccccc4)C[C@H]2CCC(=O)N13 [(3S,7aR,11aR)-3-isopropyl-9-(2-phenylethyl)-2,3,6,7,7a,8,10,11-octahydrooxazolo[2,3-j][1,6]naphthyridin-5-one] | 1 to 10 µM (≈ 0.342 to 3.42 µg/mL) | 0.1 to 1 µM | 
CC(C)[C@H]1CO[C@]23CCN(Cc4ccc5ccccc5n4)C[C@H]2CCC(=O)N13 [(3S,7aR,11aR)-3-isopropyl-9-(2-quinolylmethyl)-2,3,6,7,7a,8,10,11-octahydrooxazolo[2,3-j][1,6]naphthyridin-5-one] | < 1 µM | 0.1 to 1 µM | 
CC(C)[C@H]1CO[C@]23CCN(Cc4cccnc4)C[C@H]2CCC(=O)N13 [(3S,7aR,11aR)-3-isopropyl-9-(3-pyridylmethyl)-2,3,6,7,7a,8,10,11-octahydrooxazolo[2,3-j][1,6]naphthyridin-5-one] |  | > 1 µM | MIC (Mtb H37Rv-WT; [5]): 1 to 10 µM (≈ 0.329 to 3.29 µg/mL)
CC(C)[C@H]1CO[C@]23CCN(Cc4cccc5cccnc45)C[C@H]2CCC(=O)N13 [(3S,7aR,11aR)-3-isopropyl-9-(8-quinolylmethyl)-2,3,6,7,7a,8,10,11-octahydrooxazolo[2,3-j][1,6]naphthyridin-5-one] | 1 to 10 µM (≈ 0.38 to 3.8 µg/mL) | > 1 µM | 
CC(C)[C@H]1CO[C@]23CCN(S(=O)(=O)c4ccc(C(F)(F)F)cc4)C[C@H]2CCC(=O)N13 [(3S,7aR,11aR)-3-isopropyl-9-[4-(trifluoromethyl)phenyl]sulfonyl-2,3,6,7,7a,8,10,11-octahydrooxazolo[2,3-j][1,6]naphthyridin-5-one] | 1 to 10 µM (≈ 0.446 to 4.46 µg/mL) | 0.1 to 1 µM | 
COc1ccc(CN2CC[C@]34OC[C@H](C(C)C)N3C(=O)CC[C@@H]4C2)cc1 [(3S,7aR,11aR)-3-isopropyl-9-[(4-methoxyphenyl)methyl]-2,3,6,7,7a,8,10,11-octahydrooxazolo[2,3-j][1,6]naphthyridin-5-one] | 1 to 10 µM (≈ 0.358 to 3.58 µg/mL) | 0.1 to 1 µM | 
CC(C)[C@H]1CO[C@]23CCN(Cc4ccc(C(F)(F)F)cn4)C[C@H]2CCC(=O)N13 [(3S,7aR,11aR)-3-isopropyl-9-[[5-(trifluoromethyl)-2-pyridyl]methyl]-2,3,6,7,7a,8,10,11-octahydrooxazolo[2,3-j][1,6]naphthyridin-5-one] | < 1 µM | 0.1 to 1 µM | 
CC(C)[C@H]1CO[C@]23CCN(Cc4ccc(C(F)(F)F)nc4)C[C@H]2CCC(=O)N13 [(3S,7aR,11aR)-3-isopropyl-9-[[6-(trifluoromethyl)-3-pyridyl]methyl]-2,3,6,7,7a,8,10,11-octahydrooxazolo[2,3-j][1,6]naphthyridin-5-one] | < 1 µM | < 0.1 µM | 
CC(C)[C@H]1CO[C@]23CCN(c4ccccc4)C[C@H]2CCC(=O)N13 [(3S,7aR,11aR)-3-isopropyl-9-phenyl-2,3,6,7,7a,8,10,11-octahydrooxazolo[2,3-j][1,6]naphthyridin-5-one] | 1 to 10 µM (≈ 0.314 to 3.14 µg/mL) | 0.1 to 1 µM | 
CC(C)[C@H]1CO[C@]23CCN(CC4CCCCC4)C[C@H]2CCC(=O)N13 [(3S,7aR,11aR)-9-(cyclohexylmethyl)-3-isopropyl-2,3,6,7,7a,8,10,11-octahydrooxazolo[2,3-j][1,6]naphthyridin-5-one] | < 1 µM | 0.1 to 1 µM | 
CC(C)[C@H]1CO[C@]23CCN(Cc4ccccc4)C[C@H]2CCC(=S)N13 [(3S,7aR,11aR)-9-benzyl-3-isopropyl-2,3,6,7,7a,8,10,11-octahydrooxazolo[2,3-j][1,6]naphthyridine-5-thione] | 1 to 10 µM (≈ 0.345 to 3.45 µg/mL) | 0.1 to 1 µM | 
CC(C)[C@H]1CS[C@]23CCN(Cc4ccccc4)C[C@H]2CCC(=O)N13 [(3S,7aR,11aR)-9-benzyl-3-isopropyl-2,3,6,7,7a,8,10,11-octahydrothiazolo[2,3-j][1,6]naphthyridin-5-one] |  | > 1 µM | 
CC(C)(C)[C@H]1CO[C@]23CCN(Cc4ccccc4)C[C@H]2CCC(=O)N13 [(3S,7aR,11aR)-9-benzyl-3-tert-butyl-2,3,6,7,7a,8,10,11-octahydrooxazolo[2,3-j][1,6]naphthyridin-5-one] | > 10 µM | > 1 µM | 
CC(C)[C@H]1CO[C@]23CCN(Cc4ccc(Cl)cc4)C[C@H]2CCC(=O)N13 [Example 4, (3S,7aR,11aR)-9-[(4-chlorophenyl)methyl]-3-isopropyl-2,3,6,7,7a,8,10,11-octahydrooxazolo[2,3-j][1,6]naphthyridin-5-one] |  |  | MIC (Mtb H37Rv-WT; [6]): < 1 µM; IC50 ([1]; read-out: IC50 Ndh-M. tb): < 0.1 µM; IC50 [2]: < 100 nM
CC(C)[C@H]1CO[C@]23CCN(Cc4ccc(Cl)c(Cl)c4)C[C@H]2CCC(=O)N13 [Example 5, (3S,7aR,11aR)-9-[(3,4-dichlorophenyl)methyl]-3-isopropyl-2,3,6,7,7a,8,10,11-octahydrooxazolo[2,3-j][1,6]naphthyridin-5-one] |  |  | MIC (Mtb H37Rv-WT; [6]): < 1 µM; IC50 ([1]; read-out: IC50 Ndh-M. tb): < 0.1 µM
CC(C)[C@H]1CO[C@]23CCN(Cc4cc5ccccc5n4C)C[C@H]2CCC(=O)N13 [Example 28, (3S,7aR,11aR)-3-isopropyl-9-[(1-methylindol-2-yl)methyl]-2,3,6,7,7a,8,10,11-ocathydrooxazolo[2,3-j][1,6]naphthyridin-5-one] |  |  | MIC (Mtb H37Rv-WT; [6]): < 1 µM; IC50 ([1]; read-out: IC50 Ndh-M. tb): < 0.1 µM; MIC (M. smegmatis): < 1 µM
CC(C)[C@H]1CO[C@]23CCN(CCCc4ccc(C(F)(F)F)cc4)C[C@H]2CCC(=O)N13 [Example 39, (3S,7aR,11aR)-3-isopropyl-9-[3-[4-(trifluoromethyl)phenyl]propyl]-2,3,6,7,7a,8,10,11-octahydrooxazolo[2,3-j][1,6]naphthyridin-5-one] |  |  | MIC (Mtb H37Rv-WT; [6]): < 1 µM
CC(C)[C@H]1CO[C@]23CC[C@H](N(Cc4ccc(C(F)(F)F)cc4)Cc4ccc(C(F)(F)F)cc4)C[C@H]2CCC(=O)N13 [Example 70, (3S,7aR,9S,11aR)-9-[bis[[4-(trifluoromethyl)phenyl]methyl]ami-no]-3-isopropyl-3,6,7,7a,8,9,10,11-octahydro-2H-oxazolo[2,3-j]quinolin-5-one] |  |  | MIC (Mtb H37Rv-WT; 144 h, REMA, read-out: MIC M. tuberculosis): < 1 µM
CC(C)[C@H]1CO[C@]23CCN(C(=O)OCc4ccc(C(F)(F)F)cc4)C[C@H]2CCC(=O)N13 [[4-(trifluoromethyl)phenyl]methyl (3S,7aR,11aR)-3-isopropyl-5-oxo-2,3,6,7,7a,8,10,11-octahydrooxazolo[2,3-j][1,6]naphthyridine-9-carboxylate] | 1 to 10 µM (≈ 0.44 to 4.4 µg/mL) |  | 
CC(C)[C@H]1CO[C@]23CCN(C(=O)OCc4ccccc4)C[C@H]2CCC(=O)N13 [benzyl (3S,7aR,11aR)-3-isopropyl-5-oxo-2,3,6,7,7a,8,10,11-octahydrooxazolo[2,3-j][1,6]naphthyridine-9-carboxylate] | 1 to 10 µM (≈ 0.372 to 3.72 µg/mL) | 0.1 to 1 µM | 
